ChEMBL document CHEMBL4371005, “Overview of the Development of DprE1 Inhibitors for Combating the Menace of Tuberculosis” (J Med Chem, 2018)
≈ marks a conversion by molar mass, not a printed value.

How the values were obtained:
[1] = tested on: Mycobacterium tuberculosis; experiment: Antimycobacterial activity against Mycobacterium tuberculosis H37Rv after 24 hrs by REMA method; assay type: functional
[2] = tested on: Mycobacterium tuberculosis; experiment: Antimycobacterial activity against Mycobacterium tuberculosis H37Rv after overnight incubation by REMA method; assay type: functional
[3] = tested on: Mycobacterium tuberculosis; experiment: Antimycobacterial activity against GFP-fused Mycobacterium tuberculosis H37Rv after 7 days by fluorescence assay; assay type: functional; conditions: 168 h
[4] = tested on: Mycobacterium tuberculosis; experiment: Antimycobacterial activity against Mycobacterium tuberculosis after 5 days by turbidity assay; assay type: functional; conditions: 120 h
[5] = tested on: Mycobacterium tuberculosis; experiment: Antimycobacterial activity against GFP-fused Mycobacterium tuberculosis H37Rv by resazurin dye-based micro-broth dilution method; assay type: functional
[6] = molecular target: T1, Decaprenylphosphoryl-beta-D-ribose oxidase (Mycobacterium tuberculosis (strain ATCC 25618 / H37Rv), UniProt P9WJF1); experiment: Inhibition of Mycobacterium tuberculosis H37Rv DprE1
T1 sequence (P9WJF1 whole entry): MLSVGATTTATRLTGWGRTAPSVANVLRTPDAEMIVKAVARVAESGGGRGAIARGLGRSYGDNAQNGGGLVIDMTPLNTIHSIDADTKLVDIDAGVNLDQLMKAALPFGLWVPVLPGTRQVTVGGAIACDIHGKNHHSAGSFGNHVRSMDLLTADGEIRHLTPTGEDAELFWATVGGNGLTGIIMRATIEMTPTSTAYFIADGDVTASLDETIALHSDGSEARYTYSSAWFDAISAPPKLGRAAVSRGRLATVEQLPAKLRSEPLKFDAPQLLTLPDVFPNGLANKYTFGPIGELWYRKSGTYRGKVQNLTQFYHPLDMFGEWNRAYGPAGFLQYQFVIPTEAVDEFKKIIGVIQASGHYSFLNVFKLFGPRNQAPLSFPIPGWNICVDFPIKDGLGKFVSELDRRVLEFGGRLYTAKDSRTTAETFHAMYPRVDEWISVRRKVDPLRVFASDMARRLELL

[7] = molecular target: T1, Decaprenylphosphoryl-beta-D-ribose oxidase; experiment: Inhibition of N-terminal His6-thioredoxin tagged Mycobacterium tuberculosis H37Rv DprE1 expressed in Escherichia coli BL21(DE3) using FPR as substrate by resazurin dye-based fluorescence assay
[8] = tested on: Mycobacterium tuberculosis; experiment: Antimycobacterial activity against Mycobacterium tuberculosis in biofilm medium; assay type: functional, organism-based
[9] = tested on: Mycobacterium tuberculosis; experiment: Antimycobacterial activity against Mycobacterium tuberculosis in 7H9 medium; assay type: functional, organism-based
[10] = molecular target: T1, Decaprenylphosphoryl-beta-D-ribose oxidase; experiment: Inhibition of Mycobacterium tuberculosis H37Rv DprE1 using FPR as substrate preincubated for 6.5 hrs followed by substrate addition by resazurin dye-based spectrofluorimetric analysis
[11] = molecular target: T2, Decaprenylphosphoryl-beta-D-ribose oxidase (Mycobacterium tuberculosis (strain ATCC 25618 / H37Rv)) (UniProt P9WJF1); experiment: Ratio of IC50 for inhibition of Mycobacterium tuberculosis H37Rv DprE1 using FPR as substrate in presence of SAM by resazurin dye-based spectrofluorimetric analysis to IC50 for inhibition of Mycobacterium tuberculosis H37Rv DprE1 using FPR as substrate in absence of SAM by resazurin dye-based spectrofluorimetric analysis
T2 sequence (whole entry): T1 sequence (P9WJF1 whole entry)

[12] = Binding affinity to Mycobacterium tuberculosis DprE1
[13] = Inhibition of Mycobacterium tuberculosis DprE1 using FPR as substrate by resazurin dye-based fluorescence assay
Cytochrome P450 2C9 = Cytochrome P450 2C9 (Homo sapiens, UniProt P11712); experiment: Inhibition of CYP2C9 in human liver microsomes using diclofenac as substrate after 30 mins by in presence of NADPH by LC-MS/MS analysis; assay type: ADME
Chain of Cytochrome P450 2C9 (P11712 whole entry): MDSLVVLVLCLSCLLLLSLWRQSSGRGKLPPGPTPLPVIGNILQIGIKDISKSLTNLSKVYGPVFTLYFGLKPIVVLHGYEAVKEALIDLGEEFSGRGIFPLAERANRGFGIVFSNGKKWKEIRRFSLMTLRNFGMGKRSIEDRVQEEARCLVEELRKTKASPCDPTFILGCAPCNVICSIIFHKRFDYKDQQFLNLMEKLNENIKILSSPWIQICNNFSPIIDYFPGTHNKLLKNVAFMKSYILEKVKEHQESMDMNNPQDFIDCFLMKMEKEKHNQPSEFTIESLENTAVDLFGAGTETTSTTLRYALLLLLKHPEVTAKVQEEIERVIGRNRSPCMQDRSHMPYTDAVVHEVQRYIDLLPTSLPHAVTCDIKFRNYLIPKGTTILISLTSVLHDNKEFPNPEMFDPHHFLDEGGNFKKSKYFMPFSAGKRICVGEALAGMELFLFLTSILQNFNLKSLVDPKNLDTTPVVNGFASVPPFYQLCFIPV

[14] = tested on: Mycobacterium tuberculosis; experiment: Antimycobacterial activity against Mycobacterium tuberculosis H37Rv infected in C57BL/6 mouse primary macrophages assessed as reduction in colony forming unit at 5 uM after 2 hrs followed by compound wash out and measured after 7 days by serial dilution method relative to control; assay type: functional
[15] = tested on: Mycobacterium tuberculosis; experiment: Antimycobacterial activity against Mycobacterium tuberculosis H37Rv infected in human primary macrophages assessed as reduction in colony forming unit at 5 uM after 2 hrs followed by compound wash out and measured after 7 days by serial dilution method relative to control; assay type: functional
[16] = molecular target: T2, Decaprenylphosphoryl-beta-D-ribose oxidase (Mycobacterium tuberculosis (strain ATCC 25618 / H37Rv)); experiment: Inhibition of GFP-fused Mycobacterium tuberculosis H37Rv DprE1 after 72 hrs by fluorescence assay
[17] = tested on: Mycobacterium tuberculosis; experiment: Bactericidal activity against recombinant GFP-fused Mycobacterium tuberculosis H37Rv by resazurin dye-based assay; assay type: functional
[18] = tested on: Mycobacterium tuberculosis; experiment: Antimycobacterial activity against recombinant GFP-fused Mycobacterium tuberculosis H37Rv after 10 days by resazurin dye-based assay; assay type: functional; conditions: 240 h
[19] = molecular target: T2, Decaprenylphosphoryl-beta-D-ribose oxidase (Mycobacterium tuberculosis (strain ATCC 25618 / H37Rv)); experiment: Inhibition of Mycobacterium tuberculosis H37Rv DprE1 at 50 uM relative to control

O=c1nc(N2CCN(CC3CCCCC3)CC2)sc2c(-n3cccc3)cc(C(F)(F)F)cc12
MIC [1]: 0.16 µg/mL (≈ 0.336 µM)

Cc1nc2c([N+](=O)[O-])cc(C(F)(F)F)cc2nc1-c1ccccc1
MIC [2]: 6.25 µM (≈ 2.08 µg/mL)

COc1ccc(O[C@H]2CCCN(C(=O)c3cc([N+](=O)[O-])cc([N+](=O)[O-])c3)C2)cc1
MIC [3]: 20 µM (≈ 8.03 µg/mL)

O=C(NCCOCc1cccc(Cl)c1)c1cc([N+](=O)[O-])cc([N+](=O)[O-])c1
MIC [3]: 1 µM (≈ 0.38 µg/mL)

Cc1ccc(C(F)(F)F)cc1CNCc1cc2c(C(C)C)nn(-c3ccccc3)c2[nH]c1=O
MIC [4]: 0.4 µM (≈ 0.182 µg/mL)

NNC(=O)c1ccncc1 [ISONIAZID]
MIC [5]: 20 to 200 µg/mL (≈ 146 to 1460 µM)

COc1ccc(CNc2nc3cc(C(F)(F)F)ccc3nc2C(=O)O)cc1F
MIC99 [2]: 6.3 to 12.5 µM (≈ 2.49 to 4.94 µg/mL) | IC50 [6]: 80 nM

CCOC(=O)NC(=O)c1ccsc1NC(=O)c1ccn2cnnc2c1
IC50 [7]: 60 nM

CCOC(=O)NC(=O)c1ccsc1NC(=O)c1nc2ccccc2s1
IC50 [8]: 0.01 µg/mL (≈ 0.0266 µM) | IC50 [9]: 0.19 µg/mL (≈ 0.506 µM)

O=C(NCCOc1ccccc1F)c1cc([N+](=O)[O-])cc([N+](=O)[O-])c1
MIC [3]: 0.7 µM (≈ 0.244 µg/mL)

N#Cc1ccc(CNc2nc3cc(C(F)(F)F)ccc3nc2C(=O)O)cc1
MIC99 [2]: 50 µM (≈ 18.6 µg/mL) | IC50 [6]: 67 nM

O=C(O)c1nc2ccc(C(F)(F)F)cc2nc1NCc1ccc(F)cc1
MIC99 [2]: 12.5 µM (≈ 4.57 µg/mL) | IC50 [6]: 72 nM

CCCCN1CCN(c2nc(=O)c3cc(C(F)(F)F)cc(-n4cccc4)c3s2)CC1
MIC [1]: 0.62 µg/mL (≈ 1.42 µM)

O=C(O)c1nc2ccc(C(F)(F)F)cc2nc1NCc1ccc(C(F)(F)F)cc1
MIC99 [2]: 6.3 µM (≈ 2.62 µg/mL) | IC50 [6]: 120 nM

Cc1nc2cc(Br)cc([N+](=O)[O-])c2nc1-c1ccccc1
MIC [2]: 3.1 µM (≈ 1.07 µg/mL)

Cc1ccc(C)n1-c1cc(C(F)(F)F)cc2c(=O)nc(N3CCC4(CC3)OC[C@H](C)O4)sc12
MIC [1]: 2.5 µg/mL (≈ 5.21 µM)

O=C(NCCOCc1cccc(Cl)c1)c1cc(NO)cc([N+](=O)[O-])c1
MIC [3]: > 20 µM

Cc1ccc(C(F)(F)F)cc1CNCc1cc2c(C3CC3)nn(-c3ccccc3)c2[nH]c1=O
MIC [4]: 0.1 µM (≈ 0.0452 µg/mL)

Cc1ccc(C(F)(F)F)cc1CNCc1cc2c(C)nn(-c3ccccc3)c2[nH]c1=O
MIC [4]: 0.8 µM (≈ 0.341 µg/mL)

Cc1c(CCC(=O)N2CCCC2)c(=O)n2c([nH]c3ccccc32)c1C#N
IC50 [10]: 70 nM | Ratio IC50 [11]: 36

C[C@H]1COC2(CCN(c3nc(=O)c4cc(C(F)(F)F)cc(-n5cccc5)c4s3)CC2)O1
MIC [1]: 0.16 µg/mL (≈ 0.354 µM)

O=C(NCCOCc1cccc(C(F)(F)F)c1)c1cc([N+](=O)[O-])cc([N+](=O)[O-])c1
MIC [3]: 0.2 µM (≈ 0.0827 µg/mL)

COc1ccc(O[C@H]2CCN(C(=O)c3cc([N+](=O)[O-])cc([N+](=O)[O-])c3)C2)cc1
MIC [3]: 20 µM (≈ 7.75 µg/mL)

CCOc1ccc(CNc2nc3cc(C(F)(F)F)ccc3nc2C(=O)O)cc1
MIC99 [2]: 3.1 µM (≈ 1.21 µg/mL) | IC50 [6]: 88 nM

COC(=O)c1ccc(O[C@H]2CCN(C(=O)c3cc([N+](=O)[O-])cc([N+](=O)[O-])c3)C2)cc1
MIC [3]: > 20 µM

O=C(NCCOCc1ccccc1)c1cc([N+](=O)[O-])cc([N+](=O)[O-])c1
MIC [3]: 0.2 µM (≈ 0.0691 µg/mL)

CC[C@@H](CO)NCCN[C@@H](CC)CO [ETHAMBUTOL]
MIC [5]: 1000 to 5000 µg/mL (≈ 4890 to 24500 µM)

O=C(C1CCN(c2nnc(-n3cccc3)s2)CC1)N1CCC(Cc2ccccc2)CC1
Kd [12]: 250 nM | IC50 [13]: 54 nM

C[C@H]1COC2(CCN(c3nc(=O)c4cc(C(F)(F)F)cc([N+](=O)[O-])c4s3)CC2)O1 [BTZ-043]
MIC [5]: 0.001 µg/mL (≈ 0.00232 µM)

Cc1ccnc(NC(=O)c2ccsc2NC(=O)c2ccn3cnnc3c2)n1
IC50 [7]: 30 nM | IC50 (Cytochrome P450 2C9): > 50000 nM

O=C(NCCOCc1ccccc1F)c1cc([N+](=O)[O-])cc([N+](=O)[O-])c1
MIC [3]: 0.08 µM (≈ 0.0291 µg/mL)

O=C(O)c1nc2ccc(C(F)(F)F)cc2nc1NCc1ccc(Cl)cc1
MIC99 [2]: 3.1 µM (≈ 1.18 µg/mL) | IC50 [6]: 50 nM

COc1ccc(OCCNC(=O)c2cc([N+](=O)[O-])cc([N+](=O)[O-])c2)cc1
MIC [3]: 0.2 µM (≈ 0.0723 µg/mL) | fold change (FC) [14]: 10 | fold change (FC) [15]: 10

CC(C)(C)c1ccc(Cn2cnc([N+](=O)[O-])n2)cc1
IC90 [16]: 500 nM

Cc1nc2cc(C(F)(F)F)cc([N+](=O)[O-])c2nc1-c1ccccc1
MIC [2]: 0.75 µM (≈ 0.25 µg/mL)

Nc1cc(C(=O)NCCOCc2cccc(Cl)c2)cc([N+](=O)[O-])c1
MIC [3]: > 20 µM

CCc1nc2cc(Cl)ccn2c1C(=O)NCc1ccc(N2CCN(c3ccc(F)cc3)CC2)cc1
IC50 [6]: > 10000 nM | MBC [17]: > 200 µM | MIC [18]: 0.017 µM

COc1ccc(CNc2nc3cc(C(F)(F)F)ccc3nc2C(=O)O)cc1
MIC99 [2]: 3.1 µM (≈ 1.17 µg/mL) | IC50 [6]: 41 nM

O=C(NCCOCc1cccc(Cl)c1)c1cccc([N+](=O)[O-])c1
MIC [3]: > 20 µM

CCOC(=O)c1nc2ccc(C(F)(F)F)cc2nc1NCc1ccc(OC)cc1
MIC99 [2]: 3.1 µM (≈ 1.26 µg/mL) | inhibition [19]: 54%
